Reference: patent publication US9527859B2, “Amidopyridine derivative and use thereof” (Mitsubishi Tanabe Pharma Corporation, priority 2012, dated 2016)

Tested on: production of IL-17 in mouse splenocytes stimulated by recombinant mouse interleukin-23
Assay: Production of IL-17 induced when mouse splenocytes were stimulated by rm-IL-23 (ELISA)
Assay type: cell-based
Conditions: Splenocyte, inhibition of IL-17 production, rm-IL-23 1 nmol/L, 72 hours
Description: Effect on Production of IL-17 Induced when Mouse Splenocytes were Stimulated by Recombinant Mouse Interleukin-23 (rm-IL-23)
RPMI1640 media (Sigma-Aldrich) were used as a medium, to which 50 units/mL penicillin G potassium/50 μg/mL streptomycin (Gibco) and […] 2-mercaptoethanol (Sigma-Aldrich) were added, and then thereto was added 10% of fetal calf serum (FCS; Cell Culture Technology) which was treated at 56° C. for 30 minutes to be inactivated, and the mixture was used in the Test. The test compound was dissolved in dimethylsulfoxide and then diluted with 10% FCS-containing RPMI1640 medium to a desired concentration to be used. The spleens were aseptically taken out from 6 to 7 week-old male DBA/1J mice (Charles River Japan, Inc.) and a single cell suspension of splenocytes was prepared, which was hemolyzed by hypotonic treatment with a mixed solution of 0.83% aqueous solution of ammonium chloride and Tris-HCl buffer of pH 7.65 (9:1). A cell suspension prepared by using 10% FCS-containing RPMI1640 medium was added to a flat-bottomed 96 well microtestplate (Coaster) at 2×10^5 cells/well. Thereto were added test compounds and rm-IL-23 (R&D systems) were diluted with a medium to 1 to 1,000 nmol/L and 1 nmol/L of the final concentration, respectively, and the mixture was cultured at 37° C., 5% carbon dioxide and 95% air for 72 hours. After completion of the culture, culture supernatant was sampled and production amounts of IL-17 therein were determined by ELISA method. After sampling the supernatant, WST-8 (Seikagaku Corporation) was added at 10 μl/well and cultured at 37° C., 5% carbon dioxide and 95% air for 4 hours. Then, absorbance (O.D.: Optical Density) at 450 nm was measured by a microplate reader and the value was adopted as an index of cell survivability. An inhibition rate was calculated according to the following formula on the basis of an average of production amounts of IL-17 and O.D. values of the well containing a test compound of each concentration. Inhibition (%)=(1−(Average value of well with addition of test compound)/(Average value of well without addition of test compound))×100
Based on the dose-response curve obtained by plotting the inhibition rate in the longitudinal axis and the concentration in the horizontal axis, the concentration of the compound which inhibits the level to 50% of the value of the control group (IC50) (nmol/L) was determined by linear regression analysis.

SMILES | IC50 [nM]
Cc1cc(NC(=O)c2ccn(-c3ccc(C#N)cn3)c2)cnc1N1CCC(C(C)(C)O)CC1 [Example 46, 1-(5-cyanopyridin-2-yl)-N-{6-[4-(1-hydroxy-1-methylethyl)piperidin-1-yl]-5-methylpyridin-3-yl}-1H-pyrrole-3-carboxamide] | 60.8
Cc1cc(NC(=O)c2cnn(-c3ncc(Cl)cc3Cl)c2C)cnc1N1CCC(C(C)(C)F)CC1 [Example 48, 1-(3,5-dichloropyridin-2-yl)-N-{6-[4-(1-fluoro-1-methylethyl)piperidin-1-yl]-5-methylpyridin-3-yl}-5-methyl-1H-pyrazole-4-carboxamide] | 56.4
Cc1cc(NC(=O)c2cnn(-c3ccccc3)c2C)cnc1N1CCC(CC(C)(C)O)CC1 [Example 50, N-{6-[4-(2-hydroxy-2-methylpropyl)piperidin-1-yl]-5-methylpyridin-3-yl}-5-methyl-1-phenyl-1H-pyrazole-4-carboxamide] | 54.1
Cc1cc(NC(=O)c2cnn(-c3ccc(C(F)(F)F)cn3)c2C)cnc1N1CCC(C(C)O)CC1 (stereo not shown) [Example 55, N-{6-[4-(1-hydroxyethyl)piperidin-1-yl]-5-methylpyridin-3-yl}-5-methyl-1-[5-(trifluoromethyl)pyridin-2-yl]-1H-pyrazole-4-carboxamide] | 49.6
Cc1ccc(-n2ncc(C(=O)Nc3cnc(N4CCC(CC(C)(C)O)CC4)c(C)c3)c2C)nc1 [Example 57, N-{6-[4-(2-hydroxy-2-methylpropyl)piperidin-1-yl]-5-methylpyridin-3-yl}-5-methyl-1-(5-methylpyridin-2-yl)-1H-pyrazole-4-carboxamide] | 36.7
Cc1cc(NC(=O)c2cnn(-c3ccc(Cl)cn3)c2C)cnc1N1CCC(C(C)(C)O)CC1 [Example 58, 1-(5-chloropyridin-2-yl)-N-{6-[4-(1-hydroxy-1-methylethyl)piperidin-1-yl]-5-methylpyridin-3-yl}-5-methyl-1H-pyrazole-4-carboxamide] | 33
Cc1cc(NC(=O)c2cnn(-c3ncc(Cl)cc3Cl)c2C)cnc1N1CCC(C(C)(C)O)CC1 [Example 59, 1-(3,5-dichloropyridin-2-yl)-N-{6-[4-(1-hydroxy-1-methylethyl)piperidin-1-yl]-5-methylpyridin-3-yl}-5-methyl-1H-pyrazole-4-carboxamide] | 31.8
Cc1cc(NC(=O)c2cnn(-c3ccc(C(F)(F)F)cc3)c2C)cnc1N1CCC(C(C)(C)O)CC1 [Example 61, N-{6-[4-(1-hydroxy-1-methylethyl)piperidin-1-yl]-5-methylpyridin-3-yl}-5-methyl-1-[4-(trifluoromethyl)phenyl]-1H-pyrazole-4-carboxamide] | 19.4
Cc1cc(NC(=O)c2cnn(-c3ccc(C4CC4)cn3)c2C)cnc1N1CCC(CC(C)(C)O)CC1 [Example 64, 1-(5-cyclopropylpyridin-2-yl)-N-{6-[4-(2-hydroxy-2-methylpropyl)piperidin-1-yl]-5-methylpyridin-3-yl}-5-methyl-1H-pyrazole-4-carboxamide] | 12
Cc1cc(NC(=O)c2cnn(-c3ccc(C(F)(F)F)cn3)c2C)cnc1N1CCC(CC(C)(C)O)CC1 [Example 65, N-{6-[4-(2-hydroxy-2-methylpropyl)piperidin-1-yl]-5-methylpyridin-3-yl}-5-methyl-1-[5-(trifluoromethyl)pyridin-2-yl]-1H-pyrazole-4-carboxamide] | 5.35
Cc1cc(NC(=O)c2cnc(-c3ccc(C(F)(F)F)cc3)n2C)cnc1N1CCC(C(C)(C)O)CC1 [Example 76, N-{6-[4-(1-hydroxy-1-methylethyl)piperidin-1-yl]-5-methylpyridin-3-yl}-3-methyl-2-[4-(trifluoromethyl)phenyl]-3H-imidazole-4-carboxamide] | 30.4

Further lines, results first:

IC50 [nM] | SMILES
53.5 | Cc1c(C(=O)Nc2cnc(N3CCC(CCO)CC3)c(C#N)c2)cnn1-c1ccc(Cl)cc1 [Example 51, 1-(4-chlorophenyl)-N-{5-cyano-6-[4-(2-hydroxyethyl)piperidin-1-yl]pyridin-3-yl}-5-methyl-1H-pyrazole-4-carboxamide]
53.1 | CC(=O)OC(C)C1CCN(c2ncc(NC(=O)c3cnn(-c4ccc(C(F)(F)F)cn4)c3C)cc2C)CC1 (stereo not shown) [Example 52, acetic acid {1-[1-(3-methyl-5-{5-methyl-1-[5-(trifluoromethyl)pyridin-2-yl]-1H-pyrazole-4-carboxamide}pyridin-2-yl)piperidin-4-yl]ethyl}ester]
51.8 | COC(C)C1CCN(c2ncc(NC(=O)c3cnn(-c4ccc(C(F)(F)F)cn4)c3C)cc2C)CC1 (stereo not shown) [Example 53, N-{6-[4-(1-methoxyethyl)piperidin-1-yl]-5-methylpyridin-3-yl}-5-methyl-1-[5-(trifluoromethyl)pyridin-2-yl]-1H-pyrazole-4-carboxamide]
51 | Cc1cc(NC(=O)c2cnn(-c3ccc(F)cc3)c2C)cnc1N1CCC(C(C)(C)O)CC1 [Example 54, 1-(4-fluorophenyl)-N-{6-[4-(1-hydroxy-1-methylethyl)piperidin-1-yl]-5-methylpyridin-3-yl}-5-methyl-1H-pyrazole-4-carboxamide]
44.4 | Cc1ccc(-n2ncc(C(=O)Nc3cnc(N4CCC(C(C)(C)O)CC4)c(C)c3)c2C)cc1 [Example 56, N-{6-[4-(1-hydroxy-1-methylethyl)piperidin-1-yl]-5-methylpyridin-3-yl}-5-methyl-1-(4-methylphenyl)-1H-pyrazole-4-carboxamide]
30.4 | Cc1cc(NC(=O)c2cnn(-c3ccc(F)cn3)c2C)cnc1N1CCC(CC(C)(C)O)CC1 [Example 60, 1-(5-fluoropyridin-2-yl)-N-{6-[4-(2-hydroxy-2-methylpropyl)piperidin-1-yl]-5-methylpyridin-3-yl}-5-methyl-1H-pyrazole-4-carboxamide]
17 | Cc1cc(NC(=O)c2cnn(-c3ccc(C(F)(F)F)cn3)c2C)cnc1N1CCC(C(C)(C)O)CC1 [Example 62, N-{6-[4-(1-hydroxy-1-methylethyl)piperidin-1-yl]-5-methylpyridin-3-yl}-5-methyl-1-[5-(trifluoromethyl)pyridin-2-yl]-1H-pyrazole-4-carboxamide]
15.6 | Cc1cc(NC(=O)c2cnn(-c3ccc(Cl)cc3)c2C)cnc1N1CCC(C(C)(C)O)CC1 [Example 63, 1-(4-chlorophenyl)-N-{6-[4-(1-hydroxy-1-methylethyl)piperidin-1-yl]-5-methylpyridin-3-yl}-5-methyl-1H-pyrazole-4-carboxamide]
205 | Cc1c(C(=O)Nc2cnc(N3CCC(=O)CC3)c(C3CC3)c2)cnn1-c1ccc(Cl)cc1 [Example 70, 1-(4-chlorophenyl)-N-[5-cyclopropyl-6-(piperidin-4-on-1-yl)pyridin-3-yl]-5-methyl-1H-pyrazole-4-carboxamide]
87.7 | Cc1c(C(=O)Nc2cnc(N3CCC(CCO)CC3)c(Cl)c2)cnn1-c1ccc(Cl)cc1 [Example 74, N-{5-chloro-6-[4-(2-hydroxyethyl)piperidin-1-yl]pyridin-3-yl}-1-(4-chlorophenyl)-5-methyl-1H-pyrazole-4-carboxamide]
109 | Cc1cc(NC(=O)c2c[nH]c(-c3ccc(C(F)(F)F)cc3)n2)cnc1N1CCC(C(C)(C)O)CC1 [Example 75, N-{6-[4-(1-hydroxy-1-methylethyl)piperidin-1-yl]-5-methylpyridin-3-yl}-2-[4-(trifluoromethyl)phenyl]-1H-imidazole-4-carboxamide]
